Laboratory results reported in patent US20010046987A1, “Oxazolidinones having a sulfoximine functionality” (priority 1999, published 2001).
≈ marks a conversion by molar mass, not a printed value.

Assays:
Type in all cases: cell-based
Staphylococcus aureus = test: MIC by agar dilution, SAUR 9213; settings: for Antibacterial Activity Minimum Inhibitory Concentration SAUR 9213: strain SAUR 9213; for MIC: Staphylococcus aureus, strain SAUR 9213, read-out: Antibacterial Activity Minimum Inhibitory Concentration SAUR 9213
From the text: (§1) The in vitro activity of compounds of this invention can be assessed by standard testing procedures such as the determination of minimum inhibitory concentration (MIC) by agar dilution as described in “Approved Standard.

[1] = tested on: Staphylococcus epidermidis; test: MIC by agar dilution, SEPI 30593; settings: for Antibacterial Activity Minimum Inhibitory Concentration SEPI 30593: strain SEPI 30593; for MIC: Staphylococcus epidermidis, strain SEPI 30593, read-out: Antibacterial Activity Minimum Inhibitory Concentration SEPI 30593
From the text: as §1

Enterococcus faecium = test: MIC by agar dilution, EFAE 12712; settings: for Antibacterial Activity Minimum Inhibitory Concentration EFAE 12712: strain EFAE 12712; for MIC: Enterococcus faecium, strain EFAE 12712, read-out: Antibacterial Activity Minimum Inhibitory Concentration EFAE 12712
From the text: as §1

Streptococcus pneumoniae = test: MIC by agar dilution, SPNE 9912; settings: for Antibacterial Activity Minimum Inhibitory Concentration SPNE 9912: strain SPNE 9912; for MIC: Streptococcus pneumoniae, strain SPNE 9912, read-out: Antibacterial Activity Minimum Inhibitory Concentration SPNE 9912
From the text: as §1

Streptococcus pyogenes = test: MIC by agar dilution, SPYO 152; settings: for Antibacterial Activity Minimum Inhibitory Concentration SPYO 152: strain SPYO 152; for MIC: Streptococcus pyogenes, strain SPYO 152, read-out: Antibacterial Activity Minimum Inhibitory Concentration SPYO 152
From the text: as §1

H. influenzae = test: MIC by agar dilution, HINF 30063; settings: for Antibacterial Activity Minimum Inhibitory Concentration HINF 30063: strain HINF 30063; for MIC: Haemophilus influenzae, strain HINF 30063, read-out: Antibacterial Activity Minimum Inhibitory Concentration HINF 30063
From the text: as §1

Enterococcus faecalis = test: MIC by agar dilution, EFAE 9217; settings: for Antibacterial Activity Minimum Inhibitory Concentration EFAE 9217: strain EFAE 9217; for MIC: Enterococcus faecalis, strain EFAE 9217, read-out: Antibacterial Activity Minimum Inhibitory Concentration EFAE 9217
From the text: as §1

Moraxella catarrhalis = test: MIC by agar dilution, MCAT 30607; settings: for Antibacterial Activity Minimum Inhibitory Concentration MCAT 30607: strain MCAT 30607; for MIC: Moraxella catarrhalis, strain MCAT 30607, read-out: Antibacterial Activity Minimum Inhibitory Concentration MCAT 30607
From the text: as §1

Compound	Antibacterial Activity Minimum Inhibitory Concentration SAUR 9213 (Staphylococcus aureus) [µg/mL]	Antibacterial Activity Minimum Inhibitory Concentration SEPI 30593 [1] [µg/mL]	Antibacterial Activity Minimum Inhibitory Concentration EFAE 12712 (Enterococcus faecium) [µg/mL]	Antibacterial Activity Minimum Inhibitory Concentration SPNE 9912 (Streptococcus pneumoniae) [µg/mL]	Antibacterial Activity Minimum Inhibitory Concentration SPYO 152 (Streptococcus pyogenes) [µg/mL]	Antibacterial Activity Minimum Inhibitory Concentration HINF 30063 (H. influenzae) [µg/mL]	Antibacterial Activity Minimum Inhibitory Concentration EFAE 9217 (Enterococcus faecalis) [µg/mL]	Antibacterial Activity Minimum Inhibitory Concentration MCAT 30607 (Moraxella catarrhalis) [µg/mL]	MIC (Staphylococcus aureus) [µg/mL]	MIC [1] [µg/mL]	MIC (Enterococcus faecium) [µg/mL]	MIC (Streptococcus pneumoniae) [µg/mL]	MIC (Streptococcus pyogenes) [µg/mL]	MIC (H. influenzae) [µg/mL]	MIC (Enterococcus faecalis) [µg/mL]	MIC (Moraxella catarrhalis) [µg/mL]
CCC(=S)NC[C@H]1CN(c2ccc(C3CCS(=O)(=NC(C)=O)CC3)c(F)c2)C(=O)O1 (single isomer, unassigned) [Example 14]	1	0.5	1	0.25	0.25	4	0.5	2								
CCOC(=O)CN=S1(=O)CCC(c2ccc(N3C[C@H](CNC(=S)CC)OC3=O)cc2F)CC1 (single isomer, unassigned) [Example 20]	2	1	1	4	16	8	1	4								
CCC(=S)NC[C@H]1CN(c2ccc(C3CCS(=O)(=NCCO)CC3)c(F)c2)C(=O)O1 (single isomer, unassigned) [Example 24]	2	0.5	1	0.25	0.5	4	1	4								
COC(=O)N=S1(=O)CCC(c2ccc(N3C[C@H](CNC(=S)C4CC4)OC3=O)cc2F)CC1 (single isomer, unassigned) [Example 30]	1	0.5	0.5	0.125	0.5	4	0.5	0.5								
CC(=O)NC[C@H]1CN(c2ccc(C3CCS(=O)(=NC(=O)OCc4ccccc4)CC3)c(F)c2)C(=O)O1 (single isomer, unassigned) [Example 33]	8	2	4	1	1	64	4	16								
CC(=O)NC[C@H]1CN(c2ccc(C3CCS(=O)(=NC(=O)NCc4ccccc4)CC3)c(F)c2)C(=O)O1 (single isomer, unassigned) [Example 34]	16	2	4	1	2	32	4	16								
CC(=S)NC[C@H]1CN(c2ccc(N3CCS(=N)(=O)CC3)c(F)c2)C(=O)O1 [Example 1, N-({(5S)-3-[3-Fluoro-4-(1-imino-1-oxido-1λ^4,4-thiazinan-4-yl)phenyl]-2-oxo-1,3-oxazolidin-5-yl}methyl)ethanethioamide]	1	0.5	1	0.25	0.25	4	1	2								
CCC(=S)NC[C@H]1CN(c2ccc([C@H]3CC[S@+2]([O-])([N-]C)CC3)c(F)c2)C(=O)O1 [Example 13, N-({(5S)-3-[3-Fluoro-4-[1-(methylimino)-1-oxidohexahydro-1λ^4-thiopyran-4-yl]phenyl]-2-oxo-1,3-oxazolidin-5-yl}methyl)propanethioamide, Z-isomer]									1 (≈ 2.34 µM)	0.5 (≈ 1.17 µM)	1 (≈ 2.34 µM)	0.25 (≈ 0.585 µM)	0.25 (≈ 0.585 µM)	8 (≈ 18.7 µM)	0.5 (≈ 1.17 µM)	2 (≈ 4.68 µM)
CCC(=S)NC[C@H]1CN(c2ccc(N3CCS(=O)(=NC)CC3)c(F)c2)C(=O)O1 [Example 25, N-[((5S)-3-{3-Fluoro-4-[1-(methylimino)-1-oxido-1λ^4,4-thiazinan-4-yl]phenyl}-2-oxo-1,3-oxazolidin-5-yl)methyl]propanethioamide]									2 (≈ 4.67 µM)	0.5 (≈ 1.17 µM)	1 (≈ 2.33 µM)	0.25 (≈ 0.583 µM)	0.5 (≈ 1.17 µM)	4 (≈ 9.33 µM)	1 (≈ 2.33 µM)	4 (≈ 9.33 µM)
CN=S1(=O)CCN(c2ccc(N3C[C@H](CNC(=S)C4CC4)OC3=O)cc2F)CC1 [Example 26, N-[((5S)-3-{3-Fluoro-4-[1-(methylimino)-1-oxido-1λ^4,4-thiazinan-4-yl]phenyl}-2-oxo-1,3-oxazolidin-5-yl)methyl]cyclopropanecarbothioamide]									2 (≈ 4.54 µM)	0.5 (≈ 1.13 µM)	1 (≈ 2.27 µM)	0.25 (≈ 0.567 µM)	0.5 (≈ 1.13 µM)	4 (≈ 9.08 µM)	0.5 (≈ 1.13 µM)	2 (≈ 4.54 µM)
CCC(=S)NC[C@H]1CN(c2ccc(N3CCS(=O)(=NC(=O)OC)CC3)c(F)c2)C(=O)O1 [Example 27, N-[((5S)-3-{3-Fluoro-4-(1-[(methoxycarbonyl)imino]-1-oxido-1λ^4,4-thiazinan-4-yl)phenyl}-2-oxo-1,3-oxazolidin-5-yl)methyl]propanethioamide]	2	0.5	0.5	0.125	0.5	4	0.5	8								
COC(=O)N=S1(=O)CCN(c2ccc(N3C[C@H](CNC(=S)C4CC4)OC3=O)cc2F)CC1 [Example 28, N-[((5S)-3-{3-Fluoro-4-(1-[(methoxycarbonyl)imino]-1-oxido-1λ^4,4-thiazinan-4-yl)phenyl}-2-oxo-1,3-oxazolidin-5-yl)methyl]cyclopropanecarbothioamide]	2	0.5	1	0.25	0.5	4	1	2								
C[N-][S+2]1([O-])CCC(c2ccc(N3CC(CNC(=S)C4CC4)OC3=O)cc2F)CC1 [Example 31, N-[((5S)-3-{3-Fluoro-4-[1-(methylimino)-1-oxidohexahydro-1λ^4-thiopyran-4-yl]phenyl}-2-oxo-1,3-oxazolidin-5-yl)methyl]cyclopropanecarbothioamide, E-isomer]	2	1	2	0.5	1	8	1	4								
CCC(=S)NCC1CN(c2ccc(C3CC[S+2]([O-])([N-]C)CC3)c(F)c2)C(=O)O1 [Example 32, N-[((5S)-3-{3-Fluoro-4-[1-(methylimino)-1-oxidohexahydro-1λ^4-thiopyran-4-yl]phenyl}-2-oxo-1,3-oxazolidin-5-yl)methyl]propanethioamide, E-isomer]									4 (≈ 9.36 µM)	1 (≈ 2.34 µM)	2 (≈ 4.68 µM)	0.5 (≈ 1.17 µM)	1 (≈ 2.34 µM)	8 (≈ 18.7 µM)	2 (≈ 4.68 µM)	8 (≈ 18.7 µM)
